Laboratory results: patent US11464770B2, “Anticancer pharmaceutical composition” (NATIONAL CANCER CENTER, priority 2016, dated 2022)
Where two headings read alike, the source gives them in different places.

Experiments:
[1] = system: lung cancer cell lines (e.g. NCI-H23, NCI-H1229); experiment: Cell based assay, cell viability (CellTiter-Glo), lung cancer cell lines; conditions: Homo sapiens, 72 hours treatment, CellTiter-Glo
Procedure, shortened: (§1)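 Trypsin-EDTA-detached lines seeded; 24 h later compound added (final 0–2 μM); 72 h exposure; ATP luminescence viability readout.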

[2] = system: prostate cancer cell lines (e.g. DU145/TXR); experiment: Cell based assay, cell viability (CellTiter-Glo), prostate cancer cell lines; conditions: Homo sapiens, 72 hours treatment, final concentration 0 to 2 μM
Procedure, shortened: as §1

[3] = system: renal cancer cell lines; experiment: Cell based assay, cell viability (CellTiter-Glo), renal cancer cell lines; conditions: Homo sapiens; ACHN cells
Procedure, shortened: as §1

[4] = A549 cells, read-out: IC50, lung cancer cell line A549
[5] = DMS 114 cells, read-out: IC50, lung cancer cell line DMS 114
[6] = NCI-H23 cells, read-out: IC50, lung cancer cell line NCI-H23
[7] = NCI-H460 cells, read-out: IC50, lung cancer cell line NCI-H460
[8] = NCI-H522 cells, read-out: IC50, lung cancer cell line NCI-H522
[9] = NCI-H1299 cells, read-out: IC50, lung cancer cell line NCI-H1299
[10] = NCI-H1437 cells, read-out: IC50, lung cancer cell line NCI-H1437
[11] = CWR22 cells, read-out: IC50, prostate cancer cell line CWR22
[12] = DU-145, DU145/TXR cells, read-out: IC50, prostate cancer cell line DU145/TXR
[13] = DU-145, DU145 cells, read-out: IC50, prostate cancer cell line DU145
[14] = LNcap cells, read-out: IC50, prostate cancer cell line LNcap
[15] = PC-3 cells, read-out: IC50, prostate cancer cell line PC-3

SMILES	IC50 [1, 4] [nM]	IC50 [1, 5] [nM]	IC50 ([1]; MRC-5 cells, read-out: IC50) [nM]	IC50 [1, 6] [nM]	IC50 [1, 7] [nM]	IC50 [1, 8] [nM]	IC50 [1, 9] [nM]	IC50 [1, 10] [nM]	IC50 [2, 11] [nM]	IC50 [2, 12] [nM]	IC50 [2, 13] [nM]	IC50 [2, 14] [nM]	IC50 [2, 15] [nM]	IC50 [3] [nM]
CC(=O)c1c([S+]([O-])Cc2ccc([S+]([O-])C(F)(F)F)cc2)[nH]c2c(Br)ccc(Cl)c2c1=O (stereo not drawn) [Compound 64, 3-acetyl-8-bromo-5-chloro-2-((4-((trifluoromethyl)sulfinyl)benzyl)sulfinyl)quinolin-4(1H)-one]	> 2000	> 2000	> 2000	980	> 2000	> 2000	1350	> 10000	1490	1160	1570	1710	1430	> 2000
CC(=O)c1c([S+]([O-])Cc2cc(F)cc(S(F)(F)(F)(F)F)c2)[nH]c2c(Br)ccc(Cl)c2c1=O (stereo not drawn) [Compound 76, 3-acetyl-8-bromo-5-chloro-2-((3-fluoro-5-(pentafluoro--sulfanyl)benzyl)sulfinyl)quinolin-4(1H)-one]	> 2000	> 2000	1570	1220	> 2000	> 2000	1670	> 10000	> 2000	1170	1140	> 2000	1700	> 2000
COc1cc(S(F)(F)(F)(F)F)ccc1C[S+]([O-])c1[nH]c2c(Br)ccc(Cl)c2c(=O)c1C(C)=O (stereo not drawn) [Compound 75, 3-acetyl-8-bromo-5-chloro-2-((2-methoxy-4-(pentafluoro--sulfanyl)benzyl)sulfinyl)quinolin-4(1H)-one]	1700	> 2000	1090	1190	1730	> 2000	1060	> 10000	1880	1030	1020	> 2000	1440	> 2000
CC(=O)c1c([S+]([O-])Cc2c(F)c(F)c(F)c(F)c2F)[nH]c2c(Br)ccc(Cl)c2c1=O (stereo not drawn) [Compound 78, 3-acetyl-8-bromo-5-chloro-2-(((perfluorophenyl)methyl)sulfinyl)quinolin-4(1H)-one]	> 2000	> 2000	1500	1340	> 2000	> 2000	1810	> 10000	> 2000	1380	1150	> 2000	1530	> 2000
COC(=O)c1ccc(C[S+]([O-])c2[nH]c3c(Cl)ccc(Cl)c3c(=O)c2C(C)=O)o1 (stereo not drawn) [Compound 89, methyl 5-(((3-acetyl-5,8-dichloro-4-oxo-1,4-dihydroquinolin-2-yl)sulfinyl)methyl)furan-2-carboxylate]	> 2000	> 2000	> 2000	1470	> 2000	> 2000	> 2000	> 10000	> 2000	1960	> 2000	> 2000	> 2000	> 2000
CC(=O)c1c([S+]([O-])Cc2cccc(F)c2)[nH]c2c(Br)ccc(Cl)c2c1=O (stereo not drawn) [Compound 50, 3-acetyl-8-bromo-5-chloro-2-((3-fluorobenzyl)sulfinyl)quinolin-4(1H)-one]	> 2000	> 2000	> 2000	1140	> 2000	> 2000	1940	> 10000	> 2000	1280	1770	> 2000	1600	> 2000
CC(=O)c1c([S+]([O-])Cc2ccc(I)cc2)[nH]c2c(Cl)ccc(Cl)c2c1=O (stereo not drawn) [Compound 83, 3-acetyl-5,8-dichloro-2-((4-iodobenzyl)sulfinyl)quinolin-4(1H)-one]	> 2000	> 2000	1750	1250	1540	> 2000	1450	> 10000	1940	1050	1340	> 2000	> 2000	> 2000
CC(=O)c1c([S+]([O-])Cc2ccc([N+](=O)[O-])cc2)[nH]c2c(Cl)ccc(Cl)c2c1=O (stereo not drawn) [Compound 57, 3-acetyl-5,8-dichloro-2-((4-nitrobenzyl)sulfinyl)quinolin-4(1H)-one]	> 2000	> 2000	> 2000	1830	> 2000	> 2000	> 2000	> 10000	> 2000	> 2000	> 2000	> 2000	> 2000	> 2000
CC(=O)c1c([S+]([O-])Cc2ccc(C#N)cc2)[nH]c2c(Br)ccc(Cl)c2c1=O (stereo not drawn) [Compound 73, 4-(((3-acetyl-8-bromo-5-chloro-4-oxo-1,4-dihydroquinolin-2-yl)sulfinyl)methyl)benzonitrile]	> 2000	> 2000	> 2000	1520	> 2000	> 2000	> 2000	> 10000	> 2000	1770	> 2000	> 2000	1870	> 2000
